Publication PMC8811955 (Biochemistry, 2022)

Tested on: ySB267 (OSR4p-SEC4, Ca.Ste2)
Assay: Peptide concentration-dependent growth of ySB267
Format: cell-based, Saccharomyces cerevisiae
Conditions: ySB267, tested concentrations, 20 h

GFRLTNFGYFEPG [Ca peptide]
Peptide concentration above which maximum growth rate was reached: > 2.5 nM
